Drawing on patent US20060211739A1, “Use of selective P2X7 receptor antagonists” (priority 2005, published 2006), this text covers melting point for 14 molecules.

Structures can show the parent of a compound that is named as a salt.

`Cc1ncccc1Cn1nnnc1-c1cccc(Cl)c1Cl.Cl` yielded a melting point of 104 to 105 °C. The result for `Cl.Clc1ccc(Cl)c(-c2nnnn2Cc2cccnc2)c1` reads 200 to 201 °C; that for `Cc1ccncc1Cn1nnnc1-c1cccc(Cl)c1Cl` (as salt: hydrochloride) [Example 29, 3-{[5-(2,3-dichlorophenyl)-1H-tetraazol-1-yl]methyl}-4-methylpyridine], 154 to 156 °C. `Cc1ccnc(C)c1Cn1nnnc1-c1cccc(Cl)c1Cl` (as salt: hydrochloride) [Example 30, 3-{[5-(2,3-dichlorophenyl)-1H-tetraazol-1-yl]methyl}-2,4-dimethylpyridine] displayed a melting point of 146 to 148 °C. The result for `Clc1cccc(-c2nnnn2Cc2cscn2)c1Cl` (as salt: hydrochloride) [Example 31, 5-(2,3-dichlorophenyl)-1-(1,3-thiazol-4-ylmethyl)-1H-tetraazole] reads 153 to 154 °C; that for `Cc1nc(Cn2nnnc2-c2cccc(Cl)c2Cl)cs1` (as salt: hydrochloride) [Example 32, 5-(2,3-dichlorophenyl)-1-[(2-methyl-1,3-thiazol-4-yl)methyl]-1H-tetraazole], 156 to 158 °C; that for `CCOC(=O)c1nocc1Cn1nnnc1-c1cccc(Cl)c1Cl` (as salt: hydrochloride) [Example 34, ethyl 4-{[5-(2,3-dichlorophenyl)-1H-tetraazol-1-yl]methyl}isoxazole-3-carboxylate], 161 to 163 °C. For `Cc1[nH]cnc1Cn1nnnc1-c1cccc(Cl)c1Cl` (as salt: hydrochloride) [Example 35, 5-(2,3-dichlorophenyl)-1-[(5-methyl-1H-imidazol-4-yl)methyl]-1H-tetraazole], the melting point lay within 151 to 153 °C. The same measure for `Cc1nc(C)c(Cn2nnnc2-c2cccc(Cl)c2Cl)s1` (as salt: hydrochloride) [Example 36, 5-(2,3-dichlorophenyl)-1-[(2,4-dimethyl-1,3-thiazol-5-yl)methyl]-1H-tetraazole]: 174 to 175 °C; for `Cn1cncc1Cn1nnnc1-c1cccc(Cl)c1Cl` (as salt: hydrochloride) [Example 37, 5-(2,3-dichlorophenyl)-1-[(1-methyl-1H-imidazol-5-yl)methyl]-1H-tetraazole]: 166 to 168 °C. The same measure for `Cc1noc(C)c1Cn1nnnc1-c1cccc(Cl)c1Cl` (as salt: hydrochloride) [Example 38, 5-(2,3-dichlorophenyl)-1-[(3,5-dimethylisoxazol-4-yl)methyl]-1H-tetraazole]: 176 to 178 °C; for `Clc1ccc(-c2nnnn2Cc2ccccc2)s1` (as salt: hydrochloride) [Example 50, 1-benzyl-5-(5-chlorothien-2-yl)-1H-tetraazole]: 176 to 177 °C. The result for `Brc1ccc(-c2nnnn2Cc2ccccc2)s1` (as salt: hydrochloride) [Example 51, 1-benzyl-5-(5-bromothien-2-yl)-1H-tetraazole] reads 196 to 197 °C. `Cc1ncccc1Cn1nnnc1-c1cc(Cl)ccc1Cl` [Example 44, 3-{[5-(2,5-dichlorophenyl)-1H-tetraazol-1-yl]methyl}-2-methylpyridine]: the melting point lay within 172 to 174 °C.

Usually melting point stands for the temperature of the solid-liquid transition.
